# Data: ChEMBL document CHEMBL1144544, “Solid-phase synthesis of a combinatorial library of dihydroceramide analogues and its activity in human alveolar epithelial cells” (Bioorg Med Chem, 2007)
# The source made the active and inactive calls. The calls are words filed in the database; no cut-off is given here.
# Experiments:
# A549 [1] = assay: Cell cycle arrest in human A549 cells by accumulation at S phase after 72 hrs relative to control by flow cytometry; format: functional; parameters: concentration or dose not given beside the values
# A549 [2] = assay: Cell cycle arrest in human A549 cells by accumulation at G0/G1 phase after 72 hrs relative to control by flow cytometry; format: functional; parameters: concentration or dose not given beside the values
# A549 [3] = assay: Cell cycle arrest in human A549 cells by accumulation at G2 phase after 72 hrs relative to control by flow cytometry; format: functional; parameters: concentration or dose not given beside the values
# A549 [4] = assay: Cytotoxicity against human A549 cells upto 1 mM in presence of <=5% FBS after 72 hrs by MTT test; format: cell-based; conditions: a549, 72 h
# A549 [5] = assay: Cytotoxicity against human A549 cells in presence of 10% FBS after 72 hrs by MTT test; format: cell-based; conditions: a549, 72 h
# A549 [6] = assay: Cytotoxicity against human A549 cells after 72 hrs by MTT test; format: cell-based; conditions: A549, 72 h
# A549 [7] = assay: Cell death of human A549 cells assessed as increase in number of apoptotic cells by annexin V and propidium iodide staining by flow cytometry; format: functional, cell-based
# A549 [8] = assay: Cytotoxicity against human A549 cells at 1 mM after 72 hrs by MTT test; format: cell-based; conditions: a549, 72 h, 1000 µM
# A549 [9] = assay: Cytotoxicity against human A549 cells upto 1 mM in presence of 10% FBS after 72 hrs by MTT test; format: cell-based; conditions: a549, 72 h
SMILES,Activity (A549 [1]) [%],Activity (A549 [2]) [%],Activity (A549 [3]) [%],IC50 (A549 [6]) [µM],further results
CCCCCCCCC(O)[C@H](CO)NC(=O)CC(C)C (some centres not stated),10.5,84.5,5,–,–
CCCCCCCCCCCCC/C=C/[C@@H](O)[C@H](CO)NC(=O)CCCCC,–,–,–,35,Activity (A549 [4]): Non-toxic; Activity (A549 [5]): Dose-dependent effect
O=C(CCC1CCCC1)N[C@@H](CO)C(O)c1ccccc1 (some centres not stated),–,–,–,597,–
CCCCCCCCCCCCCCC[C@H](O)[C@H](CO)NC(=O)c1ccc(CCCCCCC)cc1,11.5,83.1,5.4,108,Activity (A549 [7]): Active
CC(O)[C@H](CO)NC(=O)CCC1CCCC1 (some centres not stated),–,–,–,–,Activity (A549 [8]): Non-toxic
CCCCCCCc1ccc(C(=O)N[C@@H](CO)C(O)c2ccccc2)cc1 (some centres not stated),–,–,–,20,–
CCCCCCCCC(O)[C@H](CO)NC(=O)c1ccccc1 (some centres not stated),8.4,89.6,2,–,–
CCCCCCCCCCCCC(O)[C@H](CO)NC(=O)CC(C)C (some centres not stated),5.2,89.8,4.4,–,–
COc1ccc(CC(=O)N[C@@H](CO)C(C)O)cc1OC (some centres not stated),–,–,–,410,–
CCCCCCCCC(O)[C@H](CO)NC(=O)c1ccc(CCCCCCC)cc1 (some centres not stated),3.4,92.6,4,20,Activity (A549 [7]): Active
CC(O)[C@H](CO)NC(=O)c1ccc2ccccc2c1 (some centres not stated),–,–,–,–,Activity (A549 [8]): Non-toxic
O=C(N[C@@H](CO)C(O)c1ccccc1)c1ccc2ccccc2c1 (some centres not stated),–,–,–,580,–
CCCCCCC(O)[C@H](CO)NC(=O)CC(C)C (some centres not stated),–,–,–,302,–
CCCCCCCCCCCCC(O)[C@H](CO)NC(=O)c1ccc2ccccc2c1 (some centres not stated),7.4,90.4,2.2,–,–
CCCCCCCCC(O)[C@H](CO)NC(=O)CCC1CCCC1 (some centres not stated),3.4,94.4,2.2,–,–
CCCCCCCCC(O)[C@H](CO)NC(=O)c1ccc2ccccc2c1 (some centres not stated),5.4,91.2,3.4,–,–
CCCCCCCCCCCCCCC[C@@H](O)[C@H](CO)NC(=O)CCCCC,–,–,–,–,Activity (A549 [9]): Not Active
CCCCCCCCCCCCC(O)[C@H](CO)NC(=O)c1ccc(CCCCCCC)cc1 (some centres not stated),7.4,88.2,4.4,–,–
CCCCCCCCCCCCC(O)[C@H](CO)NC(=O)c1ccccc1 (some centres not stated),12.8,83,4.2,–,–
CCCCCCCCCCCCC(O)[C@H](CO)NC(=O)Cc1ccc(OC)c(OC)c1 (some centres not stated),5.4,86.5,7,20,–
CC(C)CC(=O)N[C@@H](CO)C(C)O (some centres not stated),–,–,–,–,Activity (A549 [8]): Non-toxic
CC(C)CC(=O)N[C@@H](CO)C(O)c1ccccc1 (some centres not stated),–,–,–,–,Activity (A549 [8]): Non-toxic
CCCCCCC(O)[C@H](CO)NC(=O)c1ccccc1 (some centres not stated),–,–,–,290,–
CCCCCCCCCCCCCCC[C@@H](O)[C@H](CO)NC(=O)c1ccc(CCCCCCC)cc1,–,–,–,–,Activity (A549 [7]): inactive
CCCCCCCc1ccc(C(=O)N[C@@H](CO)C(O)CCCCCC)cc1 (some centres not stated),8.1,86.5,5.4,20,–
O=C(N[C@@H](CO)C(O)c1ccccc1)c1ccccc1 (some centres not stated),–,–,–,689,–
CCCCCCCCC(O)[C@H](CO)NC(=O)Cc1ccc(OC)c(OC)c1 (some centres not stated),10.5,84,5.5,–,–
CC(O)[C@H](CO)NC(=O)c1ccccc1 (some centres not stated),–,–,–,–,Activity (A549 [8]): Non-toxic
